Source: patent US9192601B2, “Methods for enhancing muscle performance and tone” (Salk Institute for Biological Studies, priority 2006, dated 2015)
“Also recorded” adds a separate entry of the source.

What was measured:
[1] = test system: quadriceps muscle; assay: Real time quantitative PCR of gene expression in quadriceps muscle; assay type: in vivo, mouse
Method: Animals were euthanized by carbon dioxide asphyxiation 72 hours after the final treatment. Gastrocnemius and quadriceps muscles were isolated, frozen and stored at −80° C. for future analysis. Total RNA was prepared from quadriceps muscle using TRIzoL™ reagent (Invitrogen, Carlsbad, Calif., USA) in conformance with manufacturer's instructions. Real time quantitative PCR (QPCR) was used to determine expression levels of uncoupling protein 3 (UCP3), muscle carnitine palmitoyl transferase I (mCPT I) and pyruvate dehydrogenase kinase 4 (PDK4) using primers known to those of ordinary skill in the art.
In addition to affecting the contractile apparatus of skeletal muscle, exercise training also increases skeletal muscle mitochondrial density (e.g., Freyssenet et al., Arch. Physiol. Biochem., 104(2): 129-141, 1996). […] Mice in all groups were acclimated to moderate treadmill running and basal running endurance was determined as described in Example 1. Thereafter, mice in the exercise-trained groups received four weeks (5 days/week) of exercise training on a treadmill inclined at 5 degrees. […] At the end of four weeks, all exercise-trained mice were running for 50 min/day at 18 m/min. […] Unless otherwise noted, V, GW, Tr and GW+Tr subjects described in this and the examples below were similarly treated. At the end of the drug treatment and/or training protocol (Week 5) 6 mice per group were subjected to the running test. […] RNA was prepared real time quantitative PCR performed as described in Example 1.

[2] = test system: quadriceps muscle; assay: Microarray analysis of quadriceps (Affymetrix mouse genome 430A 2.0); assay type: in vivo
[3] = GW + Tr: GW1516 + exercise training, quadriceps
[4] = GW + Tr: GW1516 + exercise training, quadriceps, listed as GW
[5] = GW: GW1516 alone, sedentary, quadriceps, — = not regulated

SMILES: Cc1cc(SCc2sc(-c3ccc(C(F)(F)F)cc3)nc2C)ccc1OCC(=O)O [GW1516, (2-methyl-4(((4-methyl-2-(4-trifluoromethylphenyl)-1,3-thiazol-5-yl)methyl)sulfanyl)phenoxy)acetic acid]
- earliest detection of changes in UCP3, mCPT I, PDK4 expression ([1]; 2-5 mg/kg/day): 4 days
- expression of SCDl, FAS, SREBPIc, FAT/CD36, LPL ([1]; GW1516 alone): no response
- expression of UCP3, mCPT I, and PDK4 ([1]; GW1516 alone, four weeks, quadriceps): induced; also recorded: upregulated
- expression of SCDl, FAS, SREBPIc, FAT/CD36, LPL ([1]; GW1516 combined with exercise): robustly induced
- expression of UCP3, mCPT I, and PDK4 ([1]; GW1516 with exercise vs GW1516 alone): no further induction
- number of genes regulated in quadriceps ([2]; GW1516 treatment alone): 96 genes
- 1810073N04Rik expression [2, 3]: 2.326
- 2310076L09Rik expression [2, 3]: 1.868
- Abcb1a expression [2, 3]: 10.322
- Acaa2 expression [2, 3]: 1.926
- Acadl expression [2, 3]: 2.549
- Acat2 expression [2, 3]: 1.625
- Acly expression [2, 3]: 2.606
- Acp5 expression [2, 3]: 3.91
- Adfp (adipose differentiation related protein) expression [2, 3]: 2.009
- Adipoq expression [2, 3]: 3.082
- Adrb3 expression [2, 3]: 3.83
- Aldh1a7 expression [2, 3]: 3.862
- Angptl4 expression [2, 3]: 5.495
- Aplp2 expression [2, 3]: 1.937
- Arcn1 expression [2, 3]: 1.617
- Asb15 expression [2, 3]: 1.78
- Atf3 expression [2, 3]: 1.802
- BC054059 expression [2, 3]: 5.08
- Btg2 expression [2, 3]: 1.601
- C530043G21Rik expression [2, 3]: 1.5
- Car3 expression [2, 3]: 2.339
- Cat expression [2, 3]: 1.82
- Cd36 expression [2, 3]: 1.584
- Cdo1 expression [2, 3]: 3.266
- Cebpa expression [2, 3]: 2.168
- Cfd expression [2, 3]: 2.828
- Cidea expression [2, 3]: 49.625
- Cidec expression [2, 3]: 4.771
- Clcn5 expression [2, 3]: 2.333
- Cldn5 expression [2, 3]: 1.545
- Cpt1a expression [2, 3]: 2.753
- Crybb1 expression [2, 3]: 2.457
- Cyp2e1 expression [2, 3]: 2.941
- D4Wsu53e expression [2, 3]: 1.586
- Dbi expression [2, 3]: 1.936
- Dgat2 expression [2, 3]: 2.784
- Dnajb1 expression [2, 3]: 3.59
- Dusp7 expression [2, 3]: 1.661
- Dync1i2 expression [2, 3]: 1.705
- Egr1 expression [2, 3]: 2.577
- Fabp3 expression [2, 3]: 1.833
- Fabp4 expression [2, 3]: 2.189
- Fasn expression [2, 3]: 6.323
- Fbp2 expression [2, 3]: 2.808
- Fos expression [2, 3]: 3.9
- Gpam expression [2, 3]: 2.207
- Gpiap1 expression [2, 3]: 1.83
- Hba-a1 expression [2, 3]: 1.632
- Hbb-b2|Hbb-y expression [2, 3]: 1.626
- Hip1r expression [2, 3]: 1.75
- Hipk3 expression [2, 3]: 1.694
- Hp expression [2, 3]: 1.679
- Hsd17b12 expression [2, 3]: 2.376
- Hsp90aa1 expression [2, 3]: 1.513
- Hspa1b expression [2, 3]: 8.845
- Hspa9a expression [2, 3]: 1.61
- Ifi27 expression [2, 3]: 1.714
- Igf2 expression [2, 3]: 1.635
- Igfbp5 expression [2, 3]: 1.772
- Il6st expression [2, 3]: 1.972
- Junb expression [2, 3]: 1.792
- Klf3 expression [2, 3]: 1.901
- Ldhb expression [2, 3]: 2.541
- Lig3 expression [2, 3]: 2.693
- Lipe expression [2, 3]: 3.032
- Lmx1a expression [2, 3]: 4.106
- Lpl expression [2, 3]: 1.659
- Mb expression [2, 3]: 1.578
- Mgl1 / Mgll (monoglyceride lipase) expression [2, 3]: 1.907
- Mgst1 expression [2, 3]: 1.916
- Mlycd expression [2, 3]: 1.781
- Mpv17l expression [2, 3]: 1.988
- Mybph expression [2, 3]: 1.578
- Myh2 expression [2, 3]: 2.194
- Neurl expression [2, 3]: 1.941
- Nle1 expression [2, 3]: 1.831
- Nr1d2 expression [2, 3]: 1.794
- Nr4a2 expression [2, 3]: 1.776
- Pck1 expression [2, 3]: 3.518
- Pdk4 expression [2, 3]: 2.27
- Ppp2r1b expression [2, 3]: 2.509
- Ptplb expression [2, 3]: 2.38
- Rab5b expression [2, 3]: 1.603
- Rbbp4 expression [2, 3]: 2.865
- Rbp4 expression [2, 3]: 2.065
- Retn expression [2, 3]: 4.114
- Rpol-4 expression [2, 3]: 2.498
- Rragd expression [2, 3]: 2.101
- Rtbdn expression [2, 3]: 2.32
- Scd1 expression [2, 3]: 6.494
- Scd2 expression [2, 3]: 1.849
- Serpina1a expression [2, 3]: 0.396
- Serpinf1 expression [2, 3]: 7.765
- Slc1a5 expression [2, 3]: 1.939
- Slc25a20 expression [2, 3]: 1.865
- Slc27a1 expression [2, 3]: 3.58
- Sln expression [2, 3]: 0.363
- Sod3 expression [2, 3]: 1.606
- Surf4 expression [2, 3]: 2.091
- Svs5 expression [2, 3]: 0.095
- Tgfbr2 expression [2, 3]: 2.13
- Thrsp expression [2, 3]: 2.685
- Tkt expression [2, 3]: 2.256
- Tpcn1 expression [2, 3]: 2.842
- Trf expression [2, 3]: 1.907
- Trim35 expression [2, 3]: 1.856
- Ucp3 expression [2, 3]: 2.943
- Wnt7b expression [2, 3]: 4.449
- Ywhag expression [2, 3]: 1.87
- Zfp261 expression [2, 3]: 1.847
- erythroid differentiation regulator 1 expression [2, 3]: 0.619
- Acly expression [2, 4]: 2.458
- Cat expression [2, 4]: 1.728
- Hsp90aa1 expression [2, 4]: 1.455
- Slc25a20 expression [2, 4]: 1.704
- Ankrd1 expression [2, 5]: 4.235
- Cryab expression [2, 5]: 1.561
- Crygf expression [2, 5]: 1.801
- Dnaja4 expression [2, 5]: 1.756
- Hspb1 expression [2, 5]: 1.815
- Hspb7 expression [2, 5]: 3.414
- Mt1 expression [2, 5]: 2.364
- Mt2 expression [2, 5]: 2.151
- Smad3 expression [2, 5]: 1.841
- Tnfrsf12a expression [2, 5]: 1.759
- number of genes regulated in quadriceps ([2]; combination of GW1516 and exercise): 130 genes
